The source of these data is ChEMBL document CHEMBL1156131, “Discovery of pyrazol-3-ylamino pyrazines as novel JAK2 inhibitors” (Bioorg Med Chem Lett, 2009).

Where only a bound is given, the exact number is not on record here.

The term inhibition in vivo denotes the percentage by which the read-out fell short of the control. A high value points to strong suppression. By GI50 is commonly meant the concentration that inhibits growth by half. High values mean lower sensitivity of the cells, low ones greater sensitivity of the cells. Usually IC50 stands for the point on the concentration scale where inhibition reaches its midpoint. High values mean a need for much substance, low ones inhibition by little substance. One may read the half-life as the time in which the quantity being followed falls by half. A high value points to slow loss.

T1 sequence (O60674 whole entry, the tested form may be a part): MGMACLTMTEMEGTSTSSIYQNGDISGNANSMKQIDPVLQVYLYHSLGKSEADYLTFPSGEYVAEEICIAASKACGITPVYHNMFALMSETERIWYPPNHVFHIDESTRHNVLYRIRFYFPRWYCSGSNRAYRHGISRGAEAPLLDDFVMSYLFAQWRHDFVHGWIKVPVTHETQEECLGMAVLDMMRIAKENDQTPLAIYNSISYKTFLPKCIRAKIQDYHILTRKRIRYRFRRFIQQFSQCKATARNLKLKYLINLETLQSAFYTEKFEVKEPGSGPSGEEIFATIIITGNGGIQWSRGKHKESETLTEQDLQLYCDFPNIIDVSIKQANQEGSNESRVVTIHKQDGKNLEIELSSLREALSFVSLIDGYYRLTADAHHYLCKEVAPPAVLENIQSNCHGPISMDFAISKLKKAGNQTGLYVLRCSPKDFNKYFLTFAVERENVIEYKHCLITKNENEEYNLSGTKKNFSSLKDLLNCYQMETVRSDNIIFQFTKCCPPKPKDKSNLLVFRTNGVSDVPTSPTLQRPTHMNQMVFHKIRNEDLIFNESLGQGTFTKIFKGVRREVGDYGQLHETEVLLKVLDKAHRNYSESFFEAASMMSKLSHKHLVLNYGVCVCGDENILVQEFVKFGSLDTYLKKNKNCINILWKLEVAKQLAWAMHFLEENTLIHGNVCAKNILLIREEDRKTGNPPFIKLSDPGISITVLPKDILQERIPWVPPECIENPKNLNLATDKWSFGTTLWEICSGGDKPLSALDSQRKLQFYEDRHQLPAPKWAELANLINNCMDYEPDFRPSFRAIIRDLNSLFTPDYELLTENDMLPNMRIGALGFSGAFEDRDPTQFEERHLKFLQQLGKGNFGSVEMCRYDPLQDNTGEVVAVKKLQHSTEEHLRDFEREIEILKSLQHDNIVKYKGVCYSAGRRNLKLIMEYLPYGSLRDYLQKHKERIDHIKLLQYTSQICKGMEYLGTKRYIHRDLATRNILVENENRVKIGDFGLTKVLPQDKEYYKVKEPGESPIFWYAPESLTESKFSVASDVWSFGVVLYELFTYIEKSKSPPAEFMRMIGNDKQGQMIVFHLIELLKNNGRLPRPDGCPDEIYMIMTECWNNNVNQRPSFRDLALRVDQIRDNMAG

One data set has as its system Mus musculus. Briefly: Ex vivo inhibition of STAT5 phosphorylation in NCr mouse implanted with Tel-fused JAK expressing mouse BAF3 cells at 25 mg/kg, po after 4 hrs. The data set is classed as functional. Conditions: BaF3, 4 h.
Compound `Cc1cc(Nc2cnc(C#N)c(N[C@@H](C)c3ccc(F)cn3)n2)n[nH]1` showed an inhibition in vivo at 25 mg/kg greater than 90%.

The next data set addresses T1, Tyrosine-protein kinase JAK2 (Homo sapiens, UniProt O60674). Briefly: Inhibition of Tel-fused JAK2.
Details: not given
Compound `Cc1cc(Nc2cnc(C#N)c(N[C@@H](C)c3ncc(F)cn3)n2)n[nH]1` displayed a GI50 of 160 nM.
Compound `Cc1cc(Nc2cnc(C#N)c(N[C@@H](C)c3ccc(F)cn3)n2)n[nH]1` came in with a GI50 of 60 nM.
The compound `Cc1cc(Nc2nc(N[C@@H](C)c3ncc(F)cn3)c(C#N)nc2C)n[nH]1` returned a GI50 of 220 nM.
In the case of `Cc1cc(Nc2nc(N[C@@H](C)c3ccc(F)cn3)c(C#N)nc2C)n[nH]1`, it took 110 nM to inhibit growth by half (GI50).

For a further data set, the target named is High affinity nerve growth factor receptor (Homo sapiens, UniProt P04629). Briefly: Inhibition of TRKA.
Sequence of High affinity nerve growth factor receptor (P04629 whole entry): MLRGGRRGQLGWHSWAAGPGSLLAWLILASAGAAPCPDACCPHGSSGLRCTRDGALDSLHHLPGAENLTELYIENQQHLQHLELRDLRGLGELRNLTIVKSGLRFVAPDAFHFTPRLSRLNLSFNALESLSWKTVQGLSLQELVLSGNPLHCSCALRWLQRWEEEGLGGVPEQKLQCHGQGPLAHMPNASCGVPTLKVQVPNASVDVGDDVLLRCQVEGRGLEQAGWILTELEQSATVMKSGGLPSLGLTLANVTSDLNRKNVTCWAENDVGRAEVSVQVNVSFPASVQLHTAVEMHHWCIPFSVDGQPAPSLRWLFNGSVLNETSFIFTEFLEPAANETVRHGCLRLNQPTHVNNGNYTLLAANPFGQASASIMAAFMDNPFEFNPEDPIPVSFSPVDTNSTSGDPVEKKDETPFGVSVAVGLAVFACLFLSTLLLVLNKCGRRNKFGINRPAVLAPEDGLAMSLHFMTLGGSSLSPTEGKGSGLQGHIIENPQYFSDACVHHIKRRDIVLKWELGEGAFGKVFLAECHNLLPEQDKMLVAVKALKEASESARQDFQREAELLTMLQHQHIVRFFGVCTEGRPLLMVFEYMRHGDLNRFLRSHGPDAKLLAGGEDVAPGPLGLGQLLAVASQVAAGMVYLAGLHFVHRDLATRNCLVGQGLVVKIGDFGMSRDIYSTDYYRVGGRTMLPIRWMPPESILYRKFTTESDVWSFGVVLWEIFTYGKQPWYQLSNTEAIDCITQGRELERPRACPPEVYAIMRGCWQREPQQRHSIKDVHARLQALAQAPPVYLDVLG
Details: not given
`Cc1cc(Nc2cnc(C#N)c(N[C@@H](C)c3ccc(F)cn3)n2)n[nH]1` yielded a 50% inhibitory concentration (IC50) of 670 nM.
Still for that read-out and setting: next, `Cc1cc(Nc2nc(N[C@@H](C)c3ncc(F)cn3)c(C#N)nc2C)n[nH]1`: 1480 nM.

Tested on in a further data set: not listed separately
Briefly: Half life Wistar rat at 10 mg/kg, po and 3 mg/kg, iv. Type of data set: ADME, organism-based. To be noted: in vivo.
`Cc1cc(Nc2cnc(C#N)c(N[C@@H](C)c3ccc(F)cn3)n2)n[nH]1` gave a half-life of 1.2 h.
The compound `Cc1cc(Nc2nc(N[C@@H](C)c3ncc(F)cn3)c(C#N)nc2C)n[nH]1` showed a half-life of 1.6 h.

Another data set addresses T2, Tyrosine-protein kinase JAK3 (Homo sapiens, UniProt P52333).
T2 sequence (P52333 whole entry): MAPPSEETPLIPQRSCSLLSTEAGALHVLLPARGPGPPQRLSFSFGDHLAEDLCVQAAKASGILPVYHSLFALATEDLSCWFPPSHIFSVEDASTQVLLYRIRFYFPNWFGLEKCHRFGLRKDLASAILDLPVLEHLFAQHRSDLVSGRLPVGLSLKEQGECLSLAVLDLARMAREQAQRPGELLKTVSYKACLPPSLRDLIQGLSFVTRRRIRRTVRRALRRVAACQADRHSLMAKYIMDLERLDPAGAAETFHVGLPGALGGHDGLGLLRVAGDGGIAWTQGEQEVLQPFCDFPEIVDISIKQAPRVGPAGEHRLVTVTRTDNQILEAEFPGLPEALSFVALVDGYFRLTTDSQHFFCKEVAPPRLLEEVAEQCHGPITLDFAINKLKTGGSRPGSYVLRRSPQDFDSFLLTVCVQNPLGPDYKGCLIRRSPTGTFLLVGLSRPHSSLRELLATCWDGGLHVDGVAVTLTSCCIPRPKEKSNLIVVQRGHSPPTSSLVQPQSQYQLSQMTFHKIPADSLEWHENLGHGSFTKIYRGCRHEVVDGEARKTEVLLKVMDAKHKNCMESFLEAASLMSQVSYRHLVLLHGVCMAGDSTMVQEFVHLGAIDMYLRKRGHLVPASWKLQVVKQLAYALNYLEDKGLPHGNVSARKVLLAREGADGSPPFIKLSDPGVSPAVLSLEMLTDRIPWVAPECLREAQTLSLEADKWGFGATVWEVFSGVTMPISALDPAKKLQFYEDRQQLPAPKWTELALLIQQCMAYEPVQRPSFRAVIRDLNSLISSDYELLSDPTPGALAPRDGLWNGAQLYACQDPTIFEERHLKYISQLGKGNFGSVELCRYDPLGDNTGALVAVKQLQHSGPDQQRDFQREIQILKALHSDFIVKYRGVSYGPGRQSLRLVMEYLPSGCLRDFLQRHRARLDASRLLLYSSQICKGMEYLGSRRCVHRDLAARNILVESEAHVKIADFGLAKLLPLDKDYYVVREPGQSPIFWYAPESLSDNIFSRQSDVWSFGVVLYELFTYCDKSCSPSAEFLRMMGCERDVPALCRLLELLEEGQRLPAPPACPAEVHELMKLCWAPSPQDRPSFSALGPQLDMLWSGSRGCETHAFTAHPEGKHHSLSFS
Briefly: Inhibition of JAK3 using 5 mM ATP as a substrate.
Details: not given
For the compound `Cc1cc(Nc2nc(O[C@H](C)c3ccc(F)cn3)c(C#N)nc2C)[nH]n1`, the IC50 is greater than 30000 nM.
Same read-out and setting: next, `Cc1cc(Nc2cncc(N[C@@H](C)c3ccc(F)cn3)n2)[nH]n1`: 11700 nM; `Cc1cc(Nc2cnc(C#N)c(NC(C)c3ccc(F)cn3)n2)n[nH]1` (configuration not stated): 12800 nM.
For the compound `Cc1cc(Nc2cnc(C#N)c(N[C@@H](C)c3ccc(F)cn3)n2)n[nH]1`, the IC50 is 5170 nM.
Consider `C[C@H](Nc1nc(Nc2cc(C3CC3)n[nH]2)cnc1C#N)c1ccc(F)cn1`, for which the midpoint of inhibition, the IC50, lay at 26900 nM.
Compound `Cc1cc(Nc2nc(N[C@@H](C)c3ncc(F)cn3)c(C#N)nc2C)n[nH]1` displayed an IC50 of 26500 nM.

Tested on in another data set: not listed separately
Briefly: Clearance in Wistar rat at 10 mg/kg, po and 3 mg/kg, iv. Type of data set: ADME, organism-based. Conditions: in vivo.
As for `Cc1cc(Nc2cnc(C#N)c(N[C@@H](C)c3ccc(F)cn3)n2)n[nH]1`, the clearance amounted to 25 mL/min/kg.
Turning to `Cc1cc(Nc2nc(N[C@@H](C)c3ncc(F)cn3)c(C#N)nc2C)n[nH]1`, the clearance is 13 mL/min/kg.

Another data set relates to Mus musculus. Briefly: Ex vivo inhibition of STAT5 phosphorylation in NCr mouse implanted with Tel-fused JAK expressing mouse BAF3 cells at 5 mg/kg, po after 2 hrs. Type of data set: functional. Conditions: BaF3, 2 h.
Turning to `Cc1cc(Nc2cnc(C#N)c(N[C@@H](C)c3ccc(F)cn3)n2)n[nH]1`, the inhibition in vivo at 5 mg/kg is greater than 80%.
The compound `Cc1cc(Nc2nc(N[C@@H](C)c3ncc(F)cn3)c(C#N)nc2C)n[nH]1` yielded an inhibition in vivo at 5 mg/kg greater than 80%.

Tested on in the next data set: not listed separately
Briefly: Clearance in Beagle dog at 10 mg/kg, po and 3 mg/kg, iv. Type of data set: ADME, organism-based, Canis lupus familiaris. Conditions: in vivo.
In the case of `Cc1cc(Nc2nc(N[C@@H](C)c3ncc(F)cn3)c(C#N)nc2C)n[nH]1`, the clearance was less than 2 mL/min/kg.

The target in a further data set is T1, Tyrosine-protein kinase JAK2. Briefly: Inhibition of JAK2 using 2 mM ATP as a substrate.
Details: not given
`Cc1cc(Nc2nc(O[C@H](C)c3ccc(F)cn3)c(C#N)nc2C)[nH]n1` yielded an IC50 of 108 nM.
`Cc1cc(Nc2cncc(N[C@@H](C)c3ccc(F)cn3)n2)[nH]n1`: the IC50 is less than 3 nM.
In turn, `Cc1cc(Nc2cnc(C#N)c(NC(C)c3ccc(F)cn3)n2)n[nH]1` (configuration not stated) displayed an IC50 of less than 3 nM.
Compound `Cc1cc(Nc2cnc(C#N)c(N[C@@H](C)c3ncc(F)cn3)n2)n[nH]1` displayed an IC50 of less than 3 nM.
`Cc1cc(Nc2cnc(C#N)c(N[C@@H](C)c3ccc(F)cn3)n2)n[nH]1` gave an IC50 of less than 3 nM.
Still for that read-out and setting: next, `C[C@H](Nc1nc(Nc2cc(C3CC3)n[nH]2)cnc1C#N)c1ccc(F)cn1`: less than 3 nM; `Cc1cc(Nc2nc(N[C@@H](C)c3ncc(F)cn3)c(C#N)nc2C)n[nH]1`: less than 3 nM.
As for `Cc1cc(Nc2nc(N[C@@H](C)c3ccc(F)cn3)c(C#N)nc2C)n[nH]1`, the IC50 was less than 3 nM.

Tested on in another data set: not listed separately
Briefly: Volume of distribution at steady state in Beagle dog at 10 mg/kg, po and 3 mg/kg, iv. Type of data set: ADME, organism-based, Canis lupus familiaris. To be noted: in vivo, read-out: Vdss.
Consider `Cc1cc(Nc2nc(N[C@@H](C)c3ncc(F)cn3)c(C#N)nc2C)n[nH]1`, for which the Vd came to 1.1 L/kg.

The target of a further data set is Aurora kinase B (Homo sapiens, UniProt Q96GD4). Briefly: Inhibition of Aurora B.
Sequence of Aurora kinase B (Q96GD4 whole entry): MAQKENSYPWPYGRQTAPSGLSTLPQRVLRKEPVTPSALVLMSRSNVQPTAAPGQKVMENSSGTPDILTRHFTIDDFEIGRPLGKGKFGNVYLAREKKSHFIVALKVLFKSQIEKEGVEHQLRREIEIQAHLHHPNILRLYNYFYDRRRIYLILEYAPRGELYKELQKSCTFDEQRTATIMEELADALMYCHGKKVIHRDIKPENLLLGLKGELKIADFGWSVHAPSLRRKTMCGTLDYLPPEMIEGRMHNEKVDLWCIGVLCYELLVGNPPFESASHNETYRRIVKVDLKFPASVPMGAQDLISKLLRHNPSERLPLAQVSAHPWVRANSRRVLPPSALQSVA
Details: not given
`Cc1cc(Nc2cnc(C#N)c(N[C@@H](C)c3ccc(F)cn3)n2)n[nH]1` showed an IC50 of 680 nM.
`Cc1cc(Nc2nc(N[C@@H](C)c3ncc(F)cn3)c(C#N)nc2C)n[nH]1` had an IC50 of 850 nM.

Tested on in another data set: not listed separately
Briefly: Volume of distribution at steady state in Wistar rat at 10 mg/kg, po and 3 mg/kg, iv. Type of data set: ADME, organism-based. To be noted: in vivo, read-out: Vdss.
For the compound `Cc1cc(Nc2cnc(C#N)c(N[C@@H](C)c3ccc(F)cn3)n2)n[nH]1`, the Vd is 2.2 L/kg.
On to `Cc1cc(Nc2nc(N[C@@H](C)c3ncc(F)cn3)c(C#N)nc2C)n[nH]1`, for which the Vd came to 1.6 L/kg.

In a further data set the target is T1, Tyrosine-protein kinase JAK2. Briefly: Inhibition of JAK2 using 5 mM ATP as a substrate.
Details: not given
`Cc1cc(Nc2nc(O[C@H](C)c3ccc(F)cn3)c(C#N)nc2C)[nH]n1` registered an IC50 of 4670 nM.
As for `Cc1cc(Nc2cncc(N[C@@H](C)c3ccc(F)cn3)n2)[nH]n1`, half-maximal inhibition (IC50) was put at 3 nM.
On the same count and under the same terms, the figure for `Cc1cc(Nc2cnc(C#N)c(NC(C)c3ccc(F)cn3)n2)n[nH]1` (configuration not stated) is 5 nM; for `Cc1cc(Nc2cnc(C#N)c(N[C@@H](C)c3ncc(F)cn3)n2)n[nH]1` it is 6 nM.
Consider `Cc1cc(Nc2cnc(C#N)c(N[C@@H](C)c3ccc(F)cn3)n2)n[nH]1`, for which the IC50 was 3 nM.
Consider `C[C@H](Nc1nc(Nc2cc(C3CC3)n[nH]2)cnc1C#N)c1ccc(F)cn1`, for which inhibition was half-maximal at 25 nM (IC50).
Turning to `Cc1cc(Nc2nc(N[C@@H](C)c3ncc(F)cn3)c(C#N)nc2C)n[nH]1`, the midpoint of inhibition, the IC50, lay at 87 nM.
On the same count and under the same terms, next, `Cc1cc(Nc2nc(N[C@@H](C)c3ccc(F)cn3)c(C#N)nc2C)n[nH]1`: 11 nM.

A further data set concerns the target T3, Tyrosine-protein kinase JAK3 (Homo sapiens) (UniProt P52333).
T3 sequence (whole entry): T2 sequence (P52333 whole entry)
Briefly: Inhibition of Tel-fused JAK3.
Details: not given
Turning to `Cc1cc(Nc2cnc(C#N)c(N[C@@H](C)c3ccc(F)cn3)n2)n[nH]1`, growth was halved (GI50) at 1100 nM.
`Cc1cc(Nc2nc(N[C@@H](C)c3ncc(F)cn3)c(C#N)nc2C)n[nH]1`: the concentration for 50% growth inhibition (GI50) was found to be 7400 nM.

A further data set has as its target Cyclin-dependent kinase 2 (Homo sapiens, UniProt P24941). Briefly: Inhibition of CDK2.
Details: not given
With `Cc1cc(Nc2cnc(C#N)c(N[C@@H](C)c3ncc(F)cn3)n2)n[nH]1`, the IC50 amounted to 50 nM.
`Cc1cc(Nc2cnc(C#N)c(N[C@@H](C)c3ccc(F)cn3)n2)n[nH]1` had an IC50 of 30 nM.
In turn, `Cc1cc(Nc2nc(N[C@@H](C)c3ncc(F)cn3)c(C#N)nc2C)n[nH]1` showed an IC50 of 410 nM.
Take `Cc1cc(Nc2nc(N[C@@H](C)c3ccc(F)cn3)c(C#N)nc2C)n[nH]1`: the IC50 is 460 nM.

For the next data set, the system named is Mus musculus. Briefly: Ex vivo inhibition of STAT5 phosphorylation in NCr mouse implanted with Tel-fused JAK expressing mouse BAF3 cells at 10 mg/kg, po after 2 hrs. To be noted: BaF3, 2 h. The data set is classed as functional.
`Cc1cc(Nc2cnc(C#N)c(N[C@@H](C)c3ccc(F)cn3)n2)n[nH]1` gave an inhibition in vivo at 10 mg/kg greater than 90%.
In turn, `Cc1cc(Nc2nc(N[C@@H](C)c3ncc(F)cn3)c(C#N)nc2C)n[nH]1` displayed an inhibition in vivo at 10 mg/kg greater than 90%.

The next data set has as its system Mus musculus. Briefly: Ex vivo inhibition of STAT5 phosphorylation in NCr mouse implanted with Tel-fused JAK expressing mouse BAF3 cells at 25 mg/kg, po after 2 hrs. To be noted: BaF3, 2 h. Type of data set: functional.
For `Cc1cc(Nc2cnc(C#N)c(N[C@@H](C)c3ccc(F)cn3)n2)n[nH]1`, the inhibition in vivo at 25 mg/kg was greater than 90%.
In turn, `Cc1cc(Nc2nc(N[C@@H](C)c3ncc(F)cn3)c(C#N)nc2C)n[nH]1` returned an inhibition in vivo at 25 mg/kg greater than 95%.

Tested on in the next data set: not listed separately
Briefly: Half life Beagle dog at 10 mg/kg, po and 3 mg/kg, iv. Type of data set: ADME, organism-based, Canis lupus familiaris. Conditions: in vivo.
With `Cc1cc(Nc2nc(N[C@@H](C)c3ncc(F)cn3)c(C#N)nc2C)n[nH]1`, the half-life is 7 h.
